Results as given in PMC12777510 (Chempluschem, 2025).
≈ marks a conversion by molar mass, not a printed value. Like-named read-outs stand apart in the source and are kept apart here. *1 amine or outer side, *2 acyl side, *3 side chain or, on linkers, in order; H or OH if unused. Where a SMILES comes first, the peptide text is derived from it. [ ]: non-standard residue; d: D form. X2 = O=C([C@@H](Cc1cc(C(F)(F)F)c(O)c(C(F)(F)F)c1)N[*:1])[*:2]; Aminotetradecanoyl(3R) = CCCCCCCCCCC[C@H](CC(=O)[*:2])N[*:1]; dTyr(3-CF3) = N[C@H](Cc1ccc(O)c(C(F)(F)F)c1)C(=O)O; X1 = O=C(C[C@@H](CCCCCCCCCCC(F)(F)F)N[*:1])[*:2]

Legend:
Candida albicans [1] = conditions: for MIC C. albicans: 24 h, pH 7
Fusarium graminearum [2] = conditions: broth microdilution, RPMI 1640 pH 7, 96-well plates, 28 °C for 48 h, no agitation, visual read-out, lowest concentration with complete inhibition of growth; DMSO max 2.5% v/v; triplicate
[3] = HPLC retention times compared to parent iturin A2, result in words
[4] = 19F NMR samples in D2O containing Saboraud Dextrose Broth (30 g/L), 5% d6-DMSO added to avoid precipitation
Fusarium graminearum [5] = assay: microbe, parasite or virus in culture; conditions: 48 h, pH 7, read-out: MIC F. graminearum
Candida albicans [6] = assay: microbe, parasite or virus in culture; conditions: 24 h, pH 7, read-out: MIC C. albicans

Structure (SMILES)	MIC C. albicans (Candida albicans [1]) [µM]	MIC F. graminearum (Fusarium graminearum [2]) [µM]	relative lipophilicity (hydrophobicity) by HPLC retention, compared to the natural lipopeptide [3]	relative lipophilicity (hydrophobicity) by HPLC retention, compared to the natural lipopeptide ([3]; listed as o‐CF3‐Tyr)	aqueous solubility [4] [µM]	change in bioactivity against C. albicans compared to iturin A2 (Candida albicans [1])	MIC (Fusarium graminearum [5]) [µM]	MIC (Candida albicans [6]) [µM]
CCCCCCCCCCC[C@@H]1CC(=O)N[C@@H](CC(N)=O)C(=O)N[C@H](Cc2ccc(O)cc2)C(=O)N[C@H](CC(N)=O)C(=O)N[C@@H](CCC(N)=O)C(=O)N2CCC[C@H]2C(=O)N[C@H](CC(N)=O)C(=O)N[C@@H](CO)C(=O)N1 [Synthetic iturin A2, iturin A2, reference compound] (cyclo(N[dY][dN]QP[dN]S[Aminotetradecanoyl(3R)]))	64 (≈ 66.8 µg/mL)	16 (≈ 16.7 µg/mL)	–	–	–	–	–	–
CCCCCCCCCCC[C@@H]1CC(=O)N[C@@H](CC(N)=O)C(=O)N[C@H](Cc2ccc(O)c(C(F)(F)F)c2)C(=O)N[C@H](CC(N)=O)C(=O)N[C@@H](CCC(N)=O)C(=O)N2CCC[C@H]2C(=O)N[C@H](CC(N)=O)C(=O)N[C@@H](CO)C(=O)N1 [Compound 10, o‐CF3‐Tyr iturin A2] (cyclo(N[dTyr(3-CF3)][dN]QP[dN]S[Aminotetradecanoyl(3R)]))	128 (≈ 142 µg/mL)	128 (≈ 142 µg/mL)	pronounced increase in lipophilicity	increased proportionally to the increase in fluorine content	50 (≈ 55.6 µg/mL)	–	–	–
NC(=O)CC[C@@H]1NC(=O)[C@@H](CC(N)=O)NC(=O)[C@@H](Cc2ccc(O)cc2)NC(=O)[C@H](CC(N)=O)NC(=O)C[C@@H](CCCCCCCCCCC(F)(F)F)NC(=O)[C@H](CO)NC(=O)[C@@H](CC(N)=O)NC(=O)[C@@H]2CCCN2C1=O [Compound 9, ω‐CF3 iturin A2] (cyclo(N[dY][dN]QP[dN]S[X1]))	64 (≈ 70.2 µg/mL)	64 (≈ 70.2 µg/mL)	–	–	–	completely retains the bioactivity	–	–
CCCCCCCCCCC[C@@H]1CC(=O)N[C@@H](CC(N)=O)C(=O)N[C@H](Cc2cc(C(F)(F)F)c(O)c(C(F)(F)F)c2)C(=O)N[C@H](CC(N)=O)C(=O)N[C@@H](CCC(N)=O)C(=O)N2CCC[C@H]2C(=O)N[C@H](CC(N)=O)C(=O)N[C@@H](CO)C(=O)N1 [Compound 11, di‐o‐CF3‐Tyr iturin A2] (cyclo(N[X2][dN]QP[dN]S[Aminotetradecanoyl(3R)]))	>128	>128	increased proportionally to the increase in fluorine content	–	–	–	–	–
C[C@@H]1[C@H](O)[C@@H](C)/C=C/C=C/C=C/C=C/C=C/C=C/C=C/[C@H](O[C@@H]2O[C@H](C)[C@@H](O)[C@H](N)[C@@H]2O)C[C@@H]2O[C@](O)(C[C@@H](O)C[C@@H](O)[C@H](O)CC[C@@H](O)C[C@@H](O)CC(=O)O[C@H]1C)C[C@H](O)[C@H]2C(=O)O [Amphotericin B]	–	–	–	–	–	–	4 (≈ 3.7 µg/mL)	2 (≈ 1.85 µg/mL)
